Experimental data published in patent US6815546B2, “Analogues of camptothecin, their use as medicaments and the pharmaceutical compositions containing them” (Societe de Recherches et d'Applications Scientifiques …, priority 1995, dated 2004).

How the values were obtained:
[1] = system: LOVO (cell lines of human colon adenocarcinoma); test: Test on cell proliferation (MTT test), LOVO; assay type: cell-based; conditions: 72 hours
Method: (§1) a. Eight tumoral cell lines are used in this study: L1210 (mouse lymphocytic leukemia), HCT15 and LOVO (cell lines of human colon adenocarcinoma), A549 (human lung carcinoma), A172, U373 et U87 (human glioblastoma). All these lines are obtained from the American Type Culture Collection (ATCC), Rockville, Md. The L1210 cell cultures in suspension are cultured in Dulbecco's modified Eagle's medium (DMEM) (BioWhitaker, Verviers, Belgium) together with 10% of foetal calf serum inactivated by heating, 2 mM of glutamine, 50 μg/ml of penicillin and 50 μg/ml of streptomycin. The HT29 cells are cultured in mono-layer cultures in a McCoy 5a medium (Gibco, Paisley, United Kingdom) together with 10% of foetal calf serum inactivated by heat plus 2 mM of glutamine and 50 μg/ml of gentamycin. The other cells are cultured in an Earle's modified essential medium (EMEM; Gibco, Paisley, United Kingdom) together with 5% foetal calf serum inactivated by heat, 2 mM of glutamine, 50 U/ml of penicillin and 50 μg/ml of streptomycin. All the cell lines are cultured at 37° C. in a humidified atmosphere containing 95% air and 5% CO2.
(§2) Inhibition of the tumor cell line proliferation is determined using an MTT test. 1500 L1210 cells in a culture medium (according to the needs of the cell medium) are seeded in a well of a micro-well plate (tissue culture level: 96 wells, flat bottom) 24 hours before treatment with the compounds to be tested. For these dose-response studies, the cells are incubated with each of the compounds to be tested or their corresponding solvent (controls) for 48 hours over a final concentration range of 1.10^−10 to 1.10^−4 M. All the compounds are dissolved just before use in dimethylsulphoxide (DMSO) at a concentration of 50 mM. Other dilutions of the medicaments are carried out in the culture medium. The final concentration of DMSO never exceeds 0.2% (v/v). As controls, the solutions of medicaments are replaced with the solvent which is diluted successively in the same way as the compounds to be tested.
(§3) After the incubation period, the labeling reagent MTT (3-[4,5-dimethylthiazol-2-yl]-2,5-diphenyltetrazolium bromide; Thiazol blue, Sigma M 565, Sigma, St Louis, Mo.) is added at a final concentration of 0.3 mg/ml to each well. The cells are incubated for 4 hours at 37° C. in a humidified atmosphere. This stage allows the mitochondrial dehydrogenase of the living cells to convert the yellow tetrazolium salt MTT into crimson formazan crystals. The supernatant part is eliminated and the formazan crystals formed are solubilized with DMSO. The resultant coloured solution is quantified by absorbance at 570 nm by using a multi-cuvette scanning spectrophotometer. The data concerning the proliferation is expressed as a percentage of living cells in the treated wells, divided by the living cells in the controls. Each point represents the average of three independent experiments, each experiment represents six determinations.
(§4) For the other cell lines (HCT15, LOVO, A549, A172, U373, U87), 1000 to 2000 cells are seeded in the well of a micro-well plate 24 hours before medicinal treatment. […]
(§5) The results are expressed as percentages of the calculated proliferation by the optical density (OD) of the cells treated with a medicament divided by the OD of the control cells (cells treated with DMSO). As represented in Table II, the compounds to be tested have inhibited the proliferation of cells in a dose-dependent manner.

[2] = system: HCT15 (cell lines of human colon adenocarcinoma); test: Test on cell proliferation (MTT test), HCT15; assay type: cell-based; conditions: 72 hours
Method: as §1, §2, §3, §4, §5

## CCC1(O)CC(=O)OCc2c1cc1n(c2=O)Cc2cc3ccccc3nc2-1 (stereo not shown) [Example 3, 5-ethyl-5-hydroxy-1,4,5,13-tetrahydro-3H,15H-oxepino [3′,4′:6,7]indolizino[1,2-b]quinoline-3,15-dione]
[1]; 0.1 nM
  PERCENTAGE OF CELL PROLIFERATION: 108.00%
[1]; 1 nM
  PERCENTAGE OF CELL PROLIFERATION: 86.00%
[1]; 10 nM
  PERCENTAGE OF CELL PROLIFERATION: 54.00%
[1]; 100 nM
  PERCENTAGE OF CELL PROLIFERATION: 31.00%
[1]; 1 000 nM
  PERCENTAGE OF CELL PROLIFERATION: 23.00%
[1]; 10 000 nM
  PERCENTAGE OF CELL PROLIFERATION: 10.00%
[1]; 100 000 nM
  PERCENTAGE OF CELL PROLIFERATION: 12.00%
[2]; 0.1 nM
  PERCENTAGE OF CELL PROLIFERATION: 86.00%
[2]; 1 nM
  PERCENTAGE OF CELL PROLIFERATION: 84.00%
[2]; 10 nM
  PERCENTAGE OF CELL PROLIFERATION: 58.00%
[2]; 100 nM
  PERCENTAGE OF CELL PROLIFERATION: 44.00%
[2]; 1 000 nM
  PERCENTAGE OF CELL PROLIFERATION: 18.00%
[2]; 10 000 nM
  PERCENTAGE OF CELL PROLIFERATION: 9.00%
[2]; 100 000 nM
  PERCENTAGE OF CELL PROLIFERATION: 13.00%

## CCc1c2c(nc3ccccc13)-c1cc3c(c(=O)n1C2)COC(=O)CC3(O)CC (stereo not shown) [Example 9, 5,12-diethyl-5-hydroxy-1,4,5,13-tetrahydro-3H,15H-oxepino[3′,4′:6,7]indolizino[1,2-b]quinoline-3,15-dione]
[1]; 0.1 nM
  PERCENTAGE OF CELL PROLIFERATION: 74.00%
[1]; 1 nM
  PERCENTAGE OF CELL PROLIFERATION: 85.00%
[1]; 10 nM
  PERCENTAGE OF CELL PROLIFERATION: 44.00%
[1]; 100 nM
  PERCENTAGE OF CELL PROLIFERATION: 31.00%
[1]; 1 000 nM
  PERCENTAGE OF CELL PROLIFERATION: 21.00%
[1]; 10 000 nM
  PERCENTAGE OF CELL PROLIFERATION: 4.00%
[1]; 100 000 nM
  PERCENTAGE OF CELL PROLIFERATION: 2.00%
[2]; 0.1 nM
  PERCENTAGE OF CELL PROLIFERATION: 94.00%
[2]; 1 nM
  PERCENTAGE OF CELL PROLIFERATION: 89.00%
[2]; 10 nM
  PERCENTAGE OF CELL PROLIFERATION: 59.00%
[2]; 100 nM
  PERCENTAGE OF CELL PROLIFERATION: 35.00%
[2]; 1 000 nM
  PERCENTAGE OF CELL PROLIFERATION: 15.00%
[2]; 10 000 nM
  PERCENTAGE OF CELL PROLIFERATION: 8.00%
[2]; 100 000 nM
  PERCENTAGE OF CELL PROLIFERATION: 3.00%

## CCC1(O)CC(=O)OCc2c1cc1n(c2=O)Cc2cc3cc4c(cc3nc2-1)OCCO4 (stereo not shown) [Example 11, 8-ethyl-8-hydroxy-2,3,8,9,12,15-hexahydro-10H,13H-[1,4]dioxino [2,3-g]oxepino[3′,4′:6,7]indolizino[1,2-b]quinoline-10,13-dione]
[1]; 0.1 nM
  PERCENTAGE OF CELL PROLIFERATION: 66.00%
[1]; 1 nM
  PERCENTAGE OF CELL PROLIFERATION: 42.00%
[1]; 10 nM
  PERCENTAGE OF CELL PROLIFERATION: 29.00%
[1]; 100 nM
  PERCENTAGE OF CELL PROLIFERATION: 21.00%
[1]; 1 000 nM
  PERCENTAGE OF CELL PROLIFERATION: 8.00%
[1]; 10 000 nM
  PERCENTAGE OF CELL PROLIFERATION: 3.00%
[1]; 100 000 nM
  PERCENTAGE OF CELL PROLIFERATION: 3.00%
[2]; 0.1 nM
  PERCENTAGE OF CELL PROLIFERATION: 71.00%
[2]; 1 nM
  PERCENTAGE OF CELL PROLIFERATION: 63.00%
[2]; 10 nM
  PERCENTAGE OF CELL PROLIFERATION: 45.00%
[2]; 100 nM
  PERCENTAGE OF CELL PROLIFERATION: 23.00%
[2]; 1 000 nM
  PERCENTAGE OF CELL PROLIFERATION: 12.00%
[2]; 10 000 nM
  PERCENTAGE OF CELL PROLIFERATION: 9.00%
[2]; 100 000 nM
  PERCENTAGE OF CELL PROLIFERATION: 9.00%

## CCC(O)(CC(=O)O)c1cc2n(c(=O)c1CO)Cc1cc3ccccc3nc1-2 (stereo not shown) [Example 4, 3-hydroxy-3-[8-(hydroxymethyl)-9-oxo-9,11-dihydroindolizino [1,2-b]quinolin-7-yl]pentanoic acid]
[1]; 0.1 nM
  PERCENTAGE OF CELL PROLIFERATION: 80.00%
[1]; 1 nM
  PERCENTAGE OF CELL PROLIFERATION: 75.00%
[1]; 10 nM
  PERCENTAGE OF CELL PROLIFERATION: 79.00%
[1]; 100 nM
  PERCENTAGE OF CELL PROLIFERATION: 69.00%
[1]; 1 000 nM
  PERCENTAGE OF CELL PROLIFERATION: 38.00%
[1]; 10 000 nM
  PERCENTAGE OF CELL PROLIFERATION: 21.00%
[1]; 100 000 nM
  PERCENTAGE OF CELL PROLIFERATION: 5.00%
[2]; 0.1 nM
  PERCENTAGE OF CELL PROLIFERATION: 91.00%
[2]; 1 nM
  PERCENTAGE OF CELL PROLIFERATION: 92.00%
[2]; 10 nM
  PERCENTAGE OF CELL PROLIFERATION: 86.00%
[2]; 100 nM
  PERCENTAGE OF CELL PROLIFERATION: 78.00%
[2]; 1 000 nM
  PERCENTAGE OF CELL PROLIFERATION: 54.00%
[2]; 10 000 nM
  PERCENTAGE OF CELL PROLIFERATION: 20.00%
[2]; 100 000 nM
  PERCENTAGE OF CELL PROLIFERATION: 7.00%

## CCc1c2c(nc3ccccc13)-c1cc(C(O)(CC)CC(=O)O)c(CO)c(=O)n1C2 (stereo not shown) [Example 10, 3-[12-ethyl-8-(hydroxymethyl)-9-oxo-9,11-dihydroindolizino[1,2-b]quinolin-7-yl]-3-hydroxypentanoic acid]
[1]; 0.1 nM
  PERCENTAGE OF CELL PROLIFERATION: 71.00%
[1]; 1 nM
  PERCENTAGE OF CELL PROLIFERATION: 76.00%
[1]; 10 nM
  PERCENTAGE OF CELL PROLIFERATION: 77.00%
[1]; 100 nM
  PERCENTAGE OF CELL PROLIFERATION: 52.00%
[1]; 1 000 nM
  PERCENTAGE OF CELL PROLIFERATION: 29.00%
[1]; 10 000 nM
  PERCENTAGE OF CELL PROLIFERATION: 18.00%
[1]; 100 000 nM
  PERCENTAGE OF CELL PROLIFERATION: 4.00%
[2]; 0.1 nM
  PERCENTAGE OF CELL PROLIFERATION: 111.00%
[2]; 1 nM
  PERCENTAGE OF CELL PROLIFERATION: 87.00%
[2]; 10 nM
  PERCENTAGE OF CELL PROLIFERATION: 103.00%
[2]; 100 nM
  PERCENTAGE OF CELL PROLIFERATION: 63.00%
[2]; 1 000 nM
  PERCENTAGE OF CELL PROLIFERATION: 42.00%
[2]; 10 000 nM
  PERCENTAGE OF CELL PROLIFERATION: 17.00%
[2]; 100 000 nM
  PERCENTAGE OF CELL PROLIFERATION: 9.00%
